In brackets after ≈: the same amount, converted by molar mass.
Legend:
DNA synthesis = test: Antimetabolism: DNA synthesis inhibition; format: cell-based
RNA polymerase = test: Enzyme inhibition: RNA polymerase inhibition; format: biochemical
[1] = system: HT29 = human colon carcinoma; test: Cytotoxicity against HT29 cells; format: cell-based
protein synthesis = test: Antimetabolism: protein synthesis inhibition; format: cell-based
MEL28 = human melanoma = test: Cytotoxicity against MEL28 cells; format: cell-based
[2] = system: P388 = murine lymphoma cells; test: Cytotoxicity against P388 cells; format: cell-based
[3] = system: A549 = human lung carcinoma; test: Cytotoxicity against A549 cells; format: cell-based
[4] = system: CV-1 = monkey kidney cells; test: Cytotoxicity against CV-1 cells; format: cell-based
RNA synthesis = test: Antimetabolism: RNA synthesis inhibition; format: cell-based
Bacillus subtilis = test: Antimicrobial activity against Bacillus subtilis (MIC, disc); format: cell-based; details: for B.s. MIC: Bacillus subtilis
Stability in solution = format: physicochemical; details: giving reddish color
[5] = system: P388 murine leukemia, B16 melanoma, Lewis lung carcinoma, and several human tumor xenograft models in mice; details: human tumor xenografts in mice; cited from earlier work
DNA polymerase = test: Enzyme inhibition: DNA polymerase inhibition; format: biochemical
[6] = system: L1210 = murine lymphoma cells; test: Cytotoxicity against L1210 cells; format: cell-based

Compound | DNA (DNA synthesis inhibition) IC50 (DNA synthesis) [mg/L] | RNAp (RNA polymerase inhibition) IC50 (RNA polymerase) [mg/L] | B.s. MIC (Bacillus subtilis) [μg/disc] | HT29 IC50 [1] [mg/L] | Prot. (protein synthesis inhibition) IC50 (protein synthesis) [mg/L] | MEL28 IC50 (MEL28 = human melanoma) [mg/L] | P388 IC50 [2] [mg/L] | A549 IC50 [3] [mg/L] | CV-1 IC50 [4] [mg/L] | RNA (RNA synthesis inhibition) IC50 (RNA synthesis) [mg/L] | further results
COc1cc2c(cc1OC(C)=O)CCN[C@]21CS[C@@H]2c3c(OC(C)=O)c(C)c4c(c3[C@H](COC1=O)N1[C@@H]2[C@H]2c3c(O)c(OC)c(C)c(Br)c3C[C@@H]([C@@H]1O)N2C)OCO4 [6′-Ac, 15-Br] | 0.5 | 0.42 |  |  |  |  |  |  |  |  | 
COc1c(C)cc2c(c1O)C1NC(C2)C(O)N2C3COC(=O)C(N)CSC(c4c(OC(C)=O)c(C)c(OC)c(O)c43)C12 (centres unmarked) [Et 583, Ecteinascidin 583] |  | 0.5 | 0.74 |  |  |  |  |  |  |  | IC50 ([1]; HT-29): 0.01 mg/L (≈ 0.0166 µM); IC50 (DNA synthesis): 1 mg/L (≈ 1.66 µM); IC50 (protein synthesis; read-out: Prot. (protein synthesis inhibition) IC50): 1 mg/L (≈ 1.66 µM); IC50 (MEL28 = human melanoma; SK-MEL-28): 0.005 mg/L (≈ 0.00831 µM); IC50 ([2]; Mus musculus): 0.01 mg/L (≈ 0.0166 µM); IC50 [3]: 0.01 mg/L (≈ 0.0166 µM); IC50 ([4]; Primates): 0.025 mg/L (≈ 0.0416 µM); IC50 (RNA synthesis): 0.4 mg/L (≈ 0.665 µM)
COc1c(C)cc2c(c1O)C1C3[C@@H]4SCC(=O)C(=O)OC[C@@H](c5c6c(c(C)c(OC(C)=O)c54)OCO6)N3[C@@H](O)[C@H](C2)N1C (some centres unmarked) [Et 594, Ecteinascidin 594] | 0.5 | 1.0 | 0.37 | 0.025 | 0.8 | 0.025 | 0.01 | 0.02 | 0.025 | 0.5 | 
COc1c(C)cc2c(c1O)[C@@H]1[C@@H]3[C@@H]4SC[C@H](N)C(=O)OC[C@@H](c5c(O)c(OC)c(C)c(OC(C)=O)c54)N3[C@@H](O)[C@@H](C2)N1C [Et 597, Ecteinascidin 597] | 0.08 | 0.25 | 0.14 | 0.002 | 0.7 | 0.002 | 0.002 | 0.002 | 0.0025 | 0.01 | stability in solution (Stability in solution): decomposed slowly in solution
COc1c(C)cc2c(c1O)[C@H]1N[C@@H](C2)[C@H](O)N2[C@H]1[C@@H]1SC[C@]3(NCCc4c3[nH]c3ccccc43)C(=O)OC[C@H]2c2c3c(c(C)c(OC(C)=O)c21)OCO3 [Et 722] | 0.4 | 0.5 | 0.70 | 0.002 | 0.9 | 0.002 | 0.001 | 0.001 | 0.005 | 0.1 | efficacy in vivo [5]: promising efficacy in vivo; DNAp (DNA polymerase inhibition) IC50 (DNA polymerase): >1 mg/L
COc1cc2c(cc1O)CCNC21CSC2c3c(OC(C)=O)c(C)c4c(c3C(COC1=O)N1CC3Cc5cc(C)c(OC)c(O)c5C(N3)C21)OCO4 (centres unmarked) [Et 731, Ecteinascidin 731] |  |  | 6.20 | 0.1 | >1 | 0.2 | 0.1 | 0.1 | 0.2 |  | 
COc1c(C)cc2c(c1O)[C@@H]1[C@@H]3[C@@H]4SC[C@]5(NCCc6c5[nH]c5ccccc65)C(=O)OC[C@@H](c5c6c(c(C)c(OC(C)=O)c54)OCO6)N3[C@@H](O)[C@H](C2)N1C [Et 736] | 0.4 | 0.5 | 0.38 | 0.0025 | 0.5 | 0.0025 | 0.0005 | 0.001 | 0.0025 | 0.1 | 
COc1cc2c(cc1O)CCN[C@]21CS[C@@H]2c3c(OC(C)=O)c(C)c4c(c3[C@H](COC1=O)N1[C@@H]2[C@H]2c3c(cc(C)c(OC)c3O)C[C@@H]([C@@H]1O)N2C)OCO4 [Et 743] | 0.1 | 0.1 | 0.02 | 0.0005 | >1 | 0.005 | 0.0002 | 0.0002 | 0.001 | 0.03 | efficacy in vivo [5]: promising efficacy in vivo; DNAp (DNA polymerase inhibition) IC50 (DNA polymerase): 2 mg/L; L1210 IC50 [6]: 0.005 mg/L
COc1cc2c(cc1O)CCNC21C[S+]([O-])C2c3c(OC(C)=O)c(C)c4c(c3C(COC1=O)N1C(O)C3Cc5cc(C)c(OC)c(O)c5C(N3)C21)OCO4 (centres unmarked) [Et 745B, Ecteinascidin 745B] | >1 | 3 |  | 0.01 |  |  | 0.005 | 0.01 | 0.025 | 0.5 | L1210 IC50 [6]: 0.025 mg/L
COc1cc2c(cc1O)CCN[C@]21CS[C@@H]2c3c(OC(C)=O)c(C)c4c(c3[C@H](COC1=O)N1C[C@@H]3Cc5cc(C)c(OC)c(O)c5[C@H]([C@H]21)N3C)OCO4 [Et 745] | >1 |  | 6.50 | 0.025 |  | 0.05 | 0.01 | 0.02 | 0.05 | 0.3 | 
COc1cc2c(cc1O)CCN[C@]21C[S+]([O-])[C@@H]2c3c(OC(C)=O)c(C)c4c(c3[C@H](COC1=O)N1[C@H]2[C@H]2c3c(cc(C)c(OC)c3O)C[C@@H]([C@H]1O)N2C)OCO4 (some centres unmarked) [Et 759B] | 0.7 | >1 | 3.90 | 0.005 | >1 | 0.01 | 0.005 | 0.005 | 0.025 | 0.5 | 
COc1cc2c(cc1O)CCNC21CSC2c3c(OC(C)=O)c(C)c4c(c3C(COC1=O)N1C(C(C=O)C=O)C3Cc5cc(C)c(OC)c(O)c5C(C21)N3C)OCO4 (centres unmarked) [Et 815, Ecteinascidin 815] | >1 |  | 0.75 | 0.005 |  |  | 0.0025 | 0.005 | 0.005 | 0.1 | L1210 IC50 [6]: 0.025 mg/L
COc1cc2c(cc1O)CCNC21CSC2c3c(OC(C)=O)c(C)c4c(c3C(COC1=O)N1C(O)C3Cc5c(Br)c(C)c(OC)c(O)c5C(C21)N3C=O)OCO4 (centres unmarked) [N—CHO, 15-Br (18)] |  |  |  | 0.2 |  |  | 0.05 | 0.2 | 0.25 |  | 
COc1cc2c(cc1O)CCNC21CSC2c3c(OC(C)=O)c(C)c4c(c3C(COC1=O)N1C(O)C3Cc5cc(C)c(OC)c(O)c5C(C21)N3C=O)OCO4 (centres unmarked) [N—CHO] |  | 4 | 6.60 |  |  |  |  |  |  |  | 
Ecteinascidin 596 [Et 596] |  |  |  |  |  |  |  |  |  |  | antimicrobial activity against B. subtilis (MIC) (Bacillus subtilis; crude sample, single major peak by FABMS): 0.3 μg/disc
